Assay results as given in the OligoGym collection.
HELM strings list units from the 5' end as sugar, base in round brackets, then linkage (d deoxyribose, r ribose, m 2'-O-methyl, p phosphodiester). Strings are as the collection lists them, not checked against the first reports. ss, as = sense and antisense strand; [fl2r] = 2'-fluoro

Settings: siRNA
Further: test system not given here.

Substance	target mRNA knockdown
RNA1{r(G)p.r(C)p.r(U)p.r(U)p.r(C)p.r(G)p.r(G)p.r(A)p.r(A)p.r(A)p.r(C)p.r(U)p.r(G)p.r(G)p.r(A)p.[fl2r](C)p.r(A)p.r(U)p.r(C)p.r(T)p.r(T)}|RNA2{r(G)p.r(A)p.[fl2r](U)p.r(G)p.r(U)p.r(C)p.[fl2r](C)p.r(A)p.r(G)p.r(U)p.r(U)p.r(U)p.r(C)p.r(C)p.r(G)p.r(A)p.r(A)p.r(G)p.r(C)p.r(T)p.r(T)}$$$RNA1{StrandType:ss}|RNA2{StrandType:as}$	90%
RNA1{r(G)p.r(C)p.r(U)p.r(U)p.r(U)p.m(A)p.r(A)p.r(G)p.r(G)p.r(A)p.r(A)p.r(C)p.m(U)p.r(G)p.r(G)p.r(A)p.r(A)p.r(G)p.r(G)p.r(T)p.r(T)}|RNA2{r(C)p.r(C)p.r(U)p.r(U)p.r(C)p.m(C)p.r(A)p.r(G)p.r(U)p.r(U)p.r(C)p.r(C)p.r(U)p.r(U)p.r(A)p.r(A)p.r(A)p.r(G)p.r(C)p.r(T)p.r(T)}$$$RNA1{StrandType:ss}|RNA2{StrandType:as}$	74%
RNA1{r(G)p.r(C)p.r(U)p.r(U)p.r(U)p.r(A)p.r(A)p.r(G)p.r(G)p.r(A)p.r(A)p.r(C)p.r(U)p.r(G)p.r(G)p.r(A)p.r(A)p.r(G)p.r(G)p.r(T)p.r(T)}|RNA2{r(C)p.r(C)p.r(U)p.r(U)p.r(C)p.r(C)p.r(A)p.r(G)p.r(U)p.r(U)p.r(C)p.r(C)p.r(U)p.m(U)p.r(A)p.r(A)p.r(A)p.r(G)p.r(C)p.r(T)p.r(T)}$$$RNA1{StrandType:ss}|RNA2{StrandType:as}$	37%
RNA1{r(G)p.r(G)p.m(U)p.m(A)p.r(G)p.r(A)p.r(A)p.m(U)p.r(A)p.r(G)p.r(G)p.r(U)p.r(U)p.r(U)p.r(U)p.r(C)p.r(C)p.r(C)p.r(C)p.r(T)p.r(T)}|RNA2{r(G)p.r(G)p.r(G)p.r(G)p.r(A)p.r(A)p.r(A)p.r(A)p.r(C)p.r(C)p.m(U)p.r(A)p.r(U)p.r(U)p.r(C)p.m(U)p.r(A)p.r(C)p.r(C)p.r(T)p.r(T)}$$$RNA1{StrandType:ss}|RNA2{StrandType:as}$	45%
RNA1{r(G)p.r(G)p.m(U)p.r(A)p.r(G)p.r(A)p.r(A)p.r(U)p.r(A)p.r(G)p.r(G)p.r(U)p.r(U)p.r(U)p.r(U)p.r(C)p.r(C)p.r(C)p.r(C)p.r(T)p.r(T)}|RNA2{r(G)p.r(G)p.r(G)p.r(G)p.r(A)p.r(A)p.r(A)p.r(A)p.r(C)p.r(C)p.m(U)p.r(A)p.r(U)p.r(U)p.r(C)p.r(U)p.r(A)p.r(C)p.r(C)p.r(T)p.r(T)}$$$RNA1{StrandType:ss}|RNA2{StrandType:as}$	82%
RNA1{r(G)p.r(G)p.m(U)p.r(A)p.r(G)p.r(G)p.r(G)p.r(U)p.m(U)p.r(G)p.r(A)p.r(A)p.r(G)p.r(A)p.r(G)p.r(A)p.r(C)p.r(U)p.r(U)p.r(T)p.r(T)}|RNA2{r(A)p.r(A)p.r(G)p.r(U)p.r(C)p.r(U)p.r(C)p.r(U)p.r(U)p.m(C)p.r(A)p.r(A)p.r(C)p.r(C)p.r(C)p.m(U)p.r(A)p.r(C)p.r(C)p.r(T)p.r(T)}$$$RNA1{StrandType:ss}|RNA2{StrandType:as}$	94%
RNA1{r(G)p.r(G)p.r(A)p.m(C)p.m(U)p.r(A)p.m(C)p.m(U)p.r(A)p.r(A)p.m(C)p.m(C)p.m(U)p.m(C)p.m(C)p.r(A)p.r(G)p.m(U)p.m(U)p.r(T)p.r(T)}|RNA2{r(A)p.r(A)p.m(C)p.m(U)p.r(G)p.r(G)p.r(A)p.r(G)p.r(G)p.m(U)p.m(U)p.r(A)p.r(G)p.m(U)p.r(A)p.r(G)p.m(U)p.m(C)p.m(C)p.r(T)p.r(T)}$$$RNA1{StrandType:ss}|RNA2{StrandType:as}$	7%
RNA1{r(G)p.r(G)p.r(A)p.r(A)p.m(G)p.r(U)p.r(A)p.r(A)p.r(G)p.r(G)p.r(A)p.r(C)p.r(C)p.r(A)p.r(G)p.r(A)p.r(G)p.r(A)p.r(C)p.r(T)p.r(T)}|RNA2{r(G)p.r(U)p.r(C)p.r(U)p.r(C)p.r(U)p.r(G)p.r(G)p.r(U)p.r(C)p.r(C)p.r(U)p.m(U)p.r(A)p.r(C)p.r(U)p.r(U)p.r(C)p.r(C)p.r(T)p.r(T)}$$$RNA1{StrandType:ss}|RNA2{StrandType:as}$	44%
